Results: US12605412B2, “Microbial compositions for improving the efficacy of anticancer treatments based on immune checkpoint inhibitors and/or tyrosine kinase inhibitors and markers of responsiveness to such treatments” (INSTITUT GUSTAVE ROUSSY, priority 2019, dated 2026)

System: advanced renal cell carcinoma
Experiment: Clinical outcome of nivolumab (anti-PD-1) in RCC patients of the NIVOREN trial, stratified by antibiotic use
Assay type: in vivo, human
Protocol: The patients were included from Gustave Roussy Cancer Campus, France. Inclusion criteria were patients with stage IV clear cell or non-clear cell RCC histology and disease progression during or after >1 prior anti-angiogenic therapy regimens who received nivolumab intravenously (i.v.) 3 mg/kg every 2 weeks until disease progression or intolerable toxicity in the NIVOREN GETUG-AFU 26 Phase II trial (EudraCT: 2015-004117-24) (Albiges et al., 2018). Computer tomography (CT) scans were performed at baseline and every 8 to 12 weeks for the first year and then every 12 to 15 weeks until disease progression. Tumor response was assessed using the Response Evaluation Criteria in Solid Tumors version 1.1 (RECIST v1.1) (Eisenhauer et al., 2009). […] We evaluated objective response rate defined as the number of patients with a complete response and a partial response. The best overall response was defined as the investigator-assessed best response (complete response, partial response, stable disease, or progressive disease) from the start date of nivolumab to objectively documented disease progression or subsequent therapy, whichever occurred first. […] Forty patients were analyzed in addition to 60 non-small cell lung cancer patients in the Science 2018 paper (Routy et al., 2018). […] For the first time, RCC were analyzed as a single and independent cohort in this paper. […]

Substance: nivolumab [ICB]
- objective response rate (ORR) (RCC patients on nivolumab, noATB subgroup, RECIST v1.1): 28%
- primary resistance (no ATB subgroup during ICB therapy): 33%
